This note sets out measurements from patent EP0590885B1, “Antibiotic carbapenem compounds” (ZENECA LIMITED, priority 1992, dated 1994).

SMILES strings stand for the structures. ≈ marks a conversion by molar mass, not a printed value.

Assay in all cases: MIC by agar-dilution technique, Diagnostic Sensitivity Test
Common to all, as to assay type: cell-based

Assay [1] relates to Enterobacter cloacae 108. The conditions noted are these: inoculum size 10^4 CFU/spot. An excerpt: (§1) The following results were obtained for representative compounds on a standard in vitro test system using Diagnostic Sensitivity Test. The antibacterial activity is described in terms of the minimum inhibitory concentration (MIC) determined by the agar-dilution technique with an inoculum size of 10^4 CFU/spot.

The subject of assay [2] is Enterobacter cloacae -029. Conditions: inoculum size 10^4 CFU/spot.
Text: as §1

Assay [3] concerns E. coli TEM. The conditions noted are these: Escherichia coli.
Text: as §1

The test system of assay [4] is S. aureus 147N. The conditions noted are these: Staphylococcus aureus, inoculum size 10^4 CFU/spot.
Text: as §1

By MIC is commonly meant the lowest concentration that inhibits growth of the organism. Higher therefore signals weaker potency. As for `CO/N=C(\C(=O)N[C@@H]1C(=O)N2C(C(=O)O)=C(CSc3nc(=O)c(=O)[nH]n3C)CS[C@H]12)c1csc(N)n1` [ceftriaxone, reference compound], the MIC was found to be 32 µg/mL (≈ 57.7 µM) in assay [1], 0.06 µg/mL (≈ 0.108 µM) in assay [2], 0.03 µg/mL (≈ 0.0541 µM) in assay [3] and 2 µg/mL (≈ 3.61 µM) in assay [4].

With `C[C@@H](O)[C@H]1C(=O)N2C(C(=O)O)=C(S[C@@H]3CN[C@H](C(=O)Nc4cc(/C=C/C(=O)O)ccc4O)C3)[C@H](C)[C@H]12` [Example 2, (1R,5S,6S,8R,2'S,4'S)-2-(2-(3-(E-2-Carboxy-1-ethenyl)-6-hydroxyphenylcarbamoyl)pyrrolidin-4-ylthio)-6-(1-hydroxyethyl)-1-methylcarbapenem-3-carboxylic acid], the MIC turned out to be 4 µg/mL (≈ 7.73 µM) in assay [1], 0.25 µg/mL (≈ 0.483 µM) in assay [2], 0.06 µg/mL (≈ 0.116 µM) in assay [3] and 0.25 µg/mL (≈ 0.483 µM) in assay [4].

As for `C[C@@H](O)[C@H]1C(=O)N2C(C(=O)O)=C(S[C@@H]3CN[C@H](C(=O)Nc4cccc(/C=C/C(=O)O)c4)C3)[C@H](C)[C@H]12` [Example 1, (1R,5S,6S,8R,2'S,4'S)-2-(2-(3-(E-2-Carboxy-1-ethenyl)phenylcarbamoyl)pyrrolidin-4-ylthio)-6-(1-hydroxyethyl)-1-methylcarbapenem-3-carboxylic acid], the MIC in assay [1] is 2 µg/mL (≈ 3.99 µM); in assay [2], 0.13 µg/mL (≈ 0.259 µM); in assay [3], 0.03 µg/mL (≈ 0.0598 µM); in assay [4] it was 0.13 µg/mL (≈ 0.259 µM).

With `C[C@@H](O)[C@H]1C(=O)N2C(C(=O)O)=C(S[C@@H]3CN[C@H](C(=O)Nc4cccc(OCC(=O)O)c4)C3)[C@H](C)[C@H]12` [Example 3, (1R,5S,6S,8R,2'S,4'S)-2-(2-(3-Carboxymethoxyphenylcarbamoyl)pyrrolidin-4-ylthio)-6-(1-hydroxyethyl)-1-methylcarbapenem-3-carboxylic acid], the MIC in assay [1] came out at 1 µg/mL (≈ 1.98 µM); in assay [2], 0.06 µg/mL (≈ 0.119 µM); in assay [3], 0.03 µg/mL (≈ 0.0593 µM); in assay [4], 0.25 µg/mL (≈ 0.495 µM).

For `C[C@@H](O)[C@H]1C(=O)N2C(C(=O)O)=C(S[C@@H]3CN[C@H](C(=O)Nc4cccc(C(=O)NCC(=O)O)c4)C3)[C@H](C)[C@H]12` [Example 7, (1R,5S,6S,8R,2'S,4'S)-2(2-(3-Carboxymethylaminocarbonylphenylcarbamoyl)-pyrrolidin-4-ylthio)-6-(1-hydroxyethyl)-1-methylcarbapenem-3-carboxylic acid], the MIC in assay [1] came to 1 µg/mL (≈ 1.88 µM); in assay [2], 0.13 µg/mL (≈ 0.244 µM); in assay [3], 0.03 µg/mL (≈ 0.0563 µM); in assay [4], 0.25 µg/mL (≈ 0.469 µM).
